# Literature values as cited in patent US6339063B1, “9a-azalides as veterinary antimicrobial agents” (Merck & Co., Inc., priority 1997, dated 2002).
# Test system: Pasteurella multocida
# Settings: as said in U.S. Pat. Nos. 4,474,768, 4,464,527 and 4,526,889
structure (smiles),measurement,value
CCC1OC(=O)C(C)C(OC2CC(C)(OC)C(O)C(C)O2)C(C)C(OC2OC(C)CC(N(C)C)C2O)C(C)(O)CC(C)CN(C)C(C)C(O)C1(C)O (stereo not drawn) [4″-epi-azithromycin],activity against Pasteurella multocida in vitro,active
"CC[C@H]1OC(=O)[C@H](C)[C@@H](O[C@H]2C[C@@](C)(OC)[C@@H](O)[C@H](C)O2)[C@H](C)[C@@H](O[C@@H]2O[C@H](C)C[C@H](N(C)C)[C@H]2O)[C@](C)(O)C[C@@H](C)CN(C)[C@H](C)[C@@H](O)[C@]1(C)O [azithromycin, 9-deoxo-9a-aza-9a-methyl-9a-homoerythromycin A]",activity against Pasteurella multocida in vitro,active
